For data set [1], the system named is pentagastrin-stimulated acid secretion of the perfused rat stomach. Put plainly: Secretion-inhibiting action on the perfused rat stomach (pentagastrin-stimulated acid secretion, intraduodenal administration in vivo). As to conditions: dose 1 μmol/kg i.d., anaesthetized female CD rat, pentagastrin-stimulated (1 μg/kg i.v. infusion). From the text:
Testing of the Secretion-Inhibiting Action on the Perfused Rat Stomach
In Table A which follows, the influence of the compounds according to the invention on the pentagastrin-stimulated acid secretion of the perfused rat stomach after intraduodenal administration in vivo is shown.
The abdomen of anaesthetized rats (CD rat, female, 200-250 g; 1.5 g/kg i.m. urethane) was opened after tracheotomy by a median upper abdominal incision and a PVC catheter was fixed transorally in the oesophagus and another via the pylorus such that the ends of the tubes just projected into the gastric lumen. The catheter leading from the pylorus led outward into the right abdominal wall through a side opening.
After thorough rinsing (about 50-100 ml), warm (37° C.) physiological NaCl solution was continuously passed through the stomach (0.5 ml/min, ph 6.8-6.9; Braun-Unita I). The pH (pH meter 632, glass electrode EA 147; φ=5 mm, Metrohm) and, by titration with a freshly prepared 0.01N NaOH solution to ph 7 (Dosimat 665 Metrohm), the secreted HCl were determined in the effluent in each case collected at an interval of 15 minutes.
The gastric secretion was stimulated by continuous infusion of 1 μg/kg (=1.65 ml/h) of i.v. pentagastrin (left femoral vein) about 30 min after the end of the operation (i.e. after determination of 2 preliminary fractions). The substances to be tested were administered intraduodenally in a 2.5 ml/kg liquid volume 60 min after the start of the continuous pentagastrin infusion.
The body temperature of the animals was kept at a constant 37.8-38° C. by infrared irradiation and heat pads (automatic, stepless control by means of a rectal temperature sensor).

In general, melting point refers to the temperature of the solid-liquid transition.

Where only a bound is given, the exact number is not on record here.

Compound `COC(=O)c1cc(N[C@@H]2c3ccccc3C[C@H]2O)c2nc(C)c(C)n2c1` (relative stereo) [Example 1, Methyl 8-(trans-2,3-dihydro-2-hydroxy-1-indenylamino)-2,3-dimethyl-imidazo[1,2-a]pyridine-6-carboxylate] displayed a melting point of 261 to 262 °C. `Cc1nc2c(N[C@@H]3c4ccccc4C[C@H]3O)cc(C(=O)O)cn2c1C` (relative stereo) [Example 2, 8-(trans-2,3-Dihydro-2-hydroxy-1-indenylamino)-2,3-dimethyl-imidazo[1,2-a]pyridine-6-carboxylic acid]: the melting point was in the range of 246 to 249 °C. On the same count and under the same terms, next, `Cc1nc2c(O[C@@H]3c4ccccc4C[C@H]3O)cc(C(=O)O)cn2c1C` (relative stereo) [Example 8, 8-(trans-2,3-Dihydro-2-hydroxy-1-indenyloxy)-2,3-dimethyl-imidazo[1,2-a]pyridine-6-carboxylic acid]: 229 to 231 °C. In the case of `Cc1nc2c(O[C@@H]3c4ccccc4C[C@H]3O)cc(C(=O)N(C)C)cn2c1C` (relative stereo) [Example 9, 8-(trans-2,3-Dihydro-2-hydroxy-1-indenyloxy)-6-(N,N-dimethylamino-carbonyl)-2,3-dimethyl-imidazo[1,2-a]pyridine], the “Inhibition of acid secretion (%)” value in data set [1] was above 30%.

As for `COCc1cc(O[C@@H]2c3ccccc3C[C@H]2O)c2nc(C)c(C)n2c1` (relative stereo) [Example 11, 8-(trans-2,3-Dihydro-2-hydroxy-1-indenyloxy)-6-methoxymethyl-2,3-dimethyl-imidazo[1,2-a]pyridine], the melting point lay in the range of 142 to 143 °C. In data set [1], the “Inhibition of acid secretion (%)” value is above 30%. The corresponding values for `Cc1nc2c(O[C@@H]3c4ccccc4CC[C@H]3O)cc(C(=O)N(C)C)cn2c1C.Cl` (relative stereo) [Example 15, 6-(N,N-Dimethylamino-carbonyl)-2,3-dimethyl-8-(trans-1,2,3,4-tetrahydro-2-hydroxy-1-naphthalenyloxy)-imidazo[1,2-a]pyridine hydrochloride] are 129 °C and above 30%.

With `COc1cccc2c1[C@@H](Oc1cc(C(=O)N(C)C)cn3c(C)c(C)nc13)[C@H](O)C2` (relative stereo) [Example 16, 8-(trans-2,3-Dihydro-2-hydroxy-7-methoxy-1-indenyloxy)-6-(N,N-dimethylamino-carbonyl)-2,3-dimethyl-imidazo[1,2-a]pyridine], the “Inhibition of acid secretion (%)” value in data set [1] is recorded as above 30%.

Turning to `Cc1nc2c(O[C@H]3c4ccccc4C[C@@H]3O)cc(C(=O)N(C)C)cn2c1C` [Example 14, 8-[(1S,2S)-2,3-Dihydro-2-hydroxy-1-indenyloxy)-6-(N,N-dimethylamino-carbonyl)-2,3-dimethyl-imidazo[1,2-a]pyridine], the “Inhibition of acid secretion (%)” value in data set [1] is on record as above 30%. The same measure, in the same setting: for `Cc1cccc2c1[C@@H](Oc1cc(C(=O)N(C)C)cn3c(C)c(C)nc13)[C@H](O)C2` [Example 17] the value was above 30%.
